# Measured values as given in ChEMBL document CHEMBL1135998, “Identification of orally active, potent, and selective 4-piperazinylquinazolines as antagonists of the platelet-derived growth factor receptor tyrosine kinase family” (J Med Chem, 2002).
# Experiments:
# in vivo [1] = conditions: rat, po, 30 mg/kg
# in vivo [2] = conditions: dog, po, 7.5 mg/kg
# in vivo [3] = conditions: rat, po, 30 mg/kg; remark: listed apart in the source
# in vivo [4] = conditions: dog, po, 7.5 mg/kg; remark: listed apart in the source
# in vivo [5] = conditions: rat, po, 30 mg/kg; remark: listed apart in the source
# in vivo [6] = conditions: primates, po, 5 mg/kg
# in vivo [7] = conditions: dog, po, 7.5 mg/kg; remark: listed apart in the source
# in vivo [8] = assay: in vivo
# in vivo [9] = conditions: simiiformes, po, 5 mg/kg
# in vivo [10] = conditions: rat, po, 5 mg/kg
# in vivo [11] = conditions: simiiformes, po, 5 mg/kg; remark: listed apart in the source
# in vivo [12] = conditions: dog, po, 5 mg/kg
# in vivo [13] = conditions: primates, po, 5 mg/kg; remark: listed apart in the source
# in vivo [14] = conditions: dog, po, 5 mg/kg; remark: listed apart in the source
# in vivo [15] = conditions: dog, po, 5 mg/kg; remark: listed apart in the source
# in vivo [16] = conditions: rat, po, 5 mg/kg; remark: listed apart in the source
# in vivo [17] = conditions: rat, po, 30 mg/kg; remark: listed apart in the source
# in vivo [18] = conditions: simiiformes, plasma, po, 10 mg/kg
# in vivo [19] = conditions: primates, po, 10 mg/kg
# in vivo [20] = conditions: rat, plasma, po, 30 mg/kg
# in vivo [21] = conditions: simiiformes, po, 10 mg/kg
smiles,measurement,setting,value
COc1cc2c(N3CCN(C(=O)Nc4ccc(OC(C)C)cc4)CC3)ncnc2cc1OCCCN1CCCCC1 [TANDUTINIB],bioavailability,in vivo [1],23.8%
same,Cmax,in vivo [2],481 ng/mL
same,AUC,in vivo [3],1700 ng·h/mL
same,AUC,in vivo [4],2690 ng·h/mL
same,Cmax,in vivo [5],256 ng/mL
same,bioavailability,in vivo [6],48.9%
same,bioavailability,in vivo [7],97.6%
same,Cmax,in vivo [8],317 ng/mL
same,AUC,in vivo [9],2920 ng·h/mL
COc1cc2c(N3CCN(C(=O)Nc4ccc(OC(C)C)cc4)CC3)ncnc2cc1OCCCN1CCOCC1,bioavailability,in vivo [10],20.8%
same,Cmax,in vivo [11],135 ng/mL
same,Cmax,in vivo [12],183 ng/mL
same,bioavailability,in vivo [13],18.9%
same,bioavailability,in vivo [14],63.3%
same,AUC,in vivo [15],1390 ng·h/mL
same,Cmax,in vivo [8],49.2 ng/mL
same,AUC,in vivo [9],663 ng·h/mL
same,AUC,in vivo [16],176 ng·h/mL
COc1cc2c(N3CCN(C(=O)Nc4ccc(OC(C)C)cc4)CC3)ncnc2cc1OCCN1CCCCC1,Cmax,in vivo [12],43 ng/mL
same,Cmax,in vivo [17],414 ng/mL
same,AUC,in vivo [18],3080 ng·h/mL
same,bioavailability,in vivo [14],13.5%
same,bioavailability,in vivo [19],38.8%
same,AUC,in vivo [20],4410 ng·h/mL
same,AUC,in vivo [15],387 ng·h/mL
same,Cmax,in vivo [21],386 ng/mL
